Experimental data published in patent US20220354817A1, “PHARMACEUTICAL COMPOSITION FOR PREVENTING OR TREATING SARCOPENIA CONTAINING NON-NATURAL AMINO ACID DERIVATIVE” (MYO-TEC-SCI, priority 2019, published 2022).
Where a name gives a salt, the structure may show the parent alone.

Key:
[1] = tested on: mouse skeletal muscle cells C2C12; experiment: Degree of differentiation of C2C12 cells and number of differentiated intracellular nuclei; format: cell-based; conditions: 1 mM in differentiation medium, C2C12 grown without L-leucine; for cells in which differentiation occurs, compared to L-leucine: days 1, 6, 9
Experimental: (§1) To observe how L-leucine and D-Leu-OMe-HCl act on the differentiation of mouse skeletal muscle cells C2C12, a differentiation medium containing 1 mM L-leucine and D-Leu-OMe-HCl was given to mouse skeletal muscle cells C2C12 continuously grown in a medium without L-leucine, respectively. On days 1, 6, and 9, the degree of differentiation of mouse skeletal muscle cells and the number of nuclei present in the differentiated cells were measured (see FIG. 13).
as §1, with “D-Leu-BOC—H2O” for “D-Leu-OMe-HCl”, “15).” for “13).”

[2] = tested on: myostatin mRNA; experiment: Myostatin mRNA expression by qRT-PCR in C2C12 cells, corrected with beta-actin; format: cell-based, mouse; conditions: for inhibition of myostatin mRNA expression: 0.1 mM and 1 mM in medium without L-leucine
Text: […] After one day, the mRNA expression level of myostatin was identified using qRT-PCR, and the myostatin mRNA expression value was corrected using the expression value of beta-actin.

[3] = tested on: myostatin promoter; experiment: Myostatin promoter activity, dual luciferase assay in C2C12 cells transfected with pGL4.15-MSTN; format: cell-based, mouse; conditions: for inhibition of myostatin promoter activity: 0.1 mM and 1 mM in medium without L-leucine; for inhibition of myostatin promoter activity / decrease in myostatin promoter activity compared to L-leucine: C2C12; for decrease in myostatin promoter activity compared to L-leucine: 1 mM in medium without L-leucine
Experimental: After seeding 1×10^5 cells of mouse skeletal muscle cells C2C12 (ATCC, US) in a 12-well culture plate, on the next day, pGL4.15 empty vector and pGL4.15-MSTN vector containing myostatin promoter were transfected using Lipofectamine 2000 for 4 hours. […] After one day, a dual luciferase assay kit (Promega Inc.) was used to measure the promoter activity of myostatin.

[4] = 1 mM in medium without L-leucine, C2C12
[5] = 0.1 mM in medium without L-leucine, C2C12, after one day

Compound	cells containing 6 or more nuclei [1]	cells in which differentiation occurs, compared to L-leucine [1]	inhibition of myostatin mRNA expression ([2]; C2C12)	decrease of myostatin mRNA expression level relative to L-leucine [2, 4]	inhibition of myostatin promoter activity [3]	decrease in myostatin promoter activity compared to L-leucine [3]	decrease in myostatin mRNA expression level compared to L-leucine ([2]; 0.1 mM in medium without L-leucine, C2C12)	decrease in myostatin mRNA expression level compared to L-leucine [2, 4]	expression of myostatin mRNA [2, 5]	myostatin promoter activity [3, 5]
CC(C)CC(NC(=O)OC(C)(C)C)C(=O)O [D-Leu-BOC—H2O]	observed statistically significantly	relatively large number of cells in which differentiation occurs	inhibited	similarly to L-leucine	inhibited	about 1.89 times	–	–	–	–
COC(=O)C(N)CC(C)C [D-Leu-OMe-HCl]	observed statistically significantly	relatively large number of cells in which differentiation occurs	inhibited	–	inhibited	about 1.96 times	about 1.97 times	about 3.68 times	–	–
CC(C)C[C@H](N)C(=O)OC(C)(C)C.Cl [L-Leu-OtBu-HCl]	–	–	–	–	–	–	–	–	decreased	significantly reduced
CC(C)C[C@H](N)C(=O)O [L-leucine, reference compound]	–	–	inhibited	–	inhibited	–	–	–	–	–
